Publication PMC5298231, “The Malaria Parasite's Lactate Transporter PfFNT Is the Target of Antiplasmodial Compounds Identified in Whole Cell Phenotypic Screens” (PLoS Pathogens, 2017)
“And” between values parts separate entries of the source, which are not always exact repeats. Identical values can stand only once. Like-named read-outs stand apart in the source and are kept apart here.

Tests used:
non-injected oocytes = format: cell-based, Xenopus laevis; conditions: full range of inhibitor concentrations
[1] = test system: isolated 3D7 P. falciparum trophozoites; test: L-[14C]lactate uptake by isolated 3D7 trophozoites; conditions: pH 6.1, 4°C, 20 s
[2] = test system: erythrocytes infected with 3D7 trophozoites; format: cell-based, Plasmodium falciparum; conditions: 1 μM, within 10 min; mean ± SEM, n = 3
Source text: (§1) Fig 6 The effect of MMV007839 on the volume of parasites and parasitised erythrocytes. […] The data are expressed as a percentage volume increase relative to the starting volume, which for isolated parasites (A) ranged from 35 fL to 46 fL in the individual experiments, and for intact infected erythrocytes (B) ranged from 73 fL to 79 fL. In both cases the data shown are the mean ± SEM from three independent experiments performed on different days. For each condition, the (pre-normalised) volume data for each time point greater than 0 was tested for statistical significance compared to the time zero data for that condition; **P < 0.01, ***P < 0.001.
(§2) The volume of saponin-isolated 3D7 trophozoites and of erythrocytes infected with 3D7 trophozoites was measured using a Beckman Coulter Multisizer 4 fitted with a 100 μm ‘aperture tube’. […] The electrolyte solution within the aperture tube was the same as the Experimental Saline Solution except that it lacked glucose. For experiments on infected erythrocytes, the infected cells were separated from uninfected erythrocytes using a Miltenyi Biotec VarioMACS Magnet and the cells were maintained at 37°C in bicarbonate-free RPMI supplemented with 25 mM HEPES, additional glucose (11 mM) and 0.2 mM hypoxanthine, and pH-adjusted to 7.40. For these measurements the electrolyte solution within the aperture tube differed only from this medium in that it was not supplemented with hypoxanthine or additional glucose. For each measurement of cell volume, approximately 20,000 pulses (each corresponding to the passage of a single cell through the aperture) were recorded. The median volume of the cells within each sample was determined by fitting a log Gaussian distribution curve to the population data.

[3] = test system: saponin-isolated 3D7 P. falciparum trophozoites; format: cell-based, Plasmodium falciparum; conditions: 1 μM, within 10 min; mean ± SEM, n = 3
Source text: as §1, §2

native PfFNT = target: T1, native PfFNT (Plasmodium falciparum, UniProt O77389); format: cell-based; conditions: native PfFNT in Xenopus oocytes; pH 6.4, 27.5°C, 10 min; mean ± SEM, n = 4; read-out: IC50, inhibition of PfFNT-mediated L-[14C]lactate transport
T1 construct: expressed in transfected cells; host or cells: Xenopus laevis oocytes (cRNA microinjected, 30 ng)
T1 sequence (O77389 whole entry): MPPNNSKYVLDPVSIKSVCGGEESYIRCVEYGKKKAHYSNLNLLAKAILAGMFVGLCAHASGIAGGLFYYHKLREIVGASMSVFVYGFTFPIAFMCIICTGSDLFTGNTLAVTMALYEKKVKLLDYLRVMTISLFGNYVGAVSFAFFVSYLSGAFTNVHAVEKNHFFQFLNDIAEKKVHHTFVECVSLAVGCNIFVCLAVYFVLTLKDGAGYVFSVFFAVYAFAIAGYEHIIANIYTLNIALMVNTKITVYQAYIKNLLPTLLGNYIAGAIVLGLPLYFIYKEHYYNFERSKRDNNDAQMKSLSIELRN
Description: The PfFNT-mediated uptake of L-[^14C]lactate by oocytes expressing native PfFNT (black symbols) or oocytes expressing PfFNT^Gly107Ser (white symbols) was measured in the presence of a range of different concentrations of MMV007839 (A) and MMV000972 (B). […] To enable a visual comparison between the native PfFNT and PfFNT^Gly107Ser datasets, only part of the concentration range used for the latter is shown in the main panels. The insets show the data obtained for PfFNT^Gly107Ser over the full concentration range tested. In all cases, the data are averaged from four independent experiments (using oocytes from different frogs) and are shown ± SEM. The uptake was measured at 27.5°C over 10 min at pH 6.4 using 2.7 μM L-[^14C]lactate and 600 μM unlabelled L-lactate.
The oocyte expression vectors containing PfFNT, PfENT1 and PfCRT were made previously. […] The uptake of radiolabelled substrates was measured 2–5 days post-injection at 27.5°C in ND96 buffer (containing 96 mM NaCl, 2 mM KCl, 1 mM MgCl2, 1.8 mM CaCl2, 10 mM MES and 10 mM Tris-base; pH-adjusted to the value specified in the relevant Figure legends). […] The oocytes were then transferred to separate wells of a 96-well plate, lysed with 10% SDS, and the radioactivity measured as described previously.

PfENT1 = test: [3H]hypoxanthine uptake by Xenopus oocytes expressing PfENT1; format: cell-based, Plasmodium falciparum; conditions: 1 μM and 4 μM; pH 6.0, 30 min
Source text: (PfCRT; from the chloroquine-resistant Dd2 strain) and on [^3H]hypoxanthine transport by oocytes expressing the P. falciparum equilibrative nucleoside/nucleobase transporter PfENT1 [27, 28].
The oocyte expression vectors containing PfFNT, PfENT1 and PfCRT were made previously. The Gly107Ser mutant form of PfFNT was generated through site-directed mutagenesis of the oocyte expression vector containing wild-type (3D7) PfFNT using primers 9 and 10 (S2 Table). Oocytes were harvested from adult female Xenopus laevis frogs and prepared as described previously. cRNA was made using the mMessage mMachine T7 transcription kit and the MEGAclear kit (Ambion) and microinjected into oocytes as outlined elsewhere. The amount of cRNA injected (per oocyte) was 30 ng for PfFNT, 10 ng for PfENT1, and 20 ng for PfCRT. The uptake of radiolabelled substrates was measured 2–5 days post-injection at 27.5°C in ND96 buffer (containing 96 mM NaCl, 2 mM KCl, 1 mM MgCl2, 1.8 mM CaCl2, 10 mM MES and 10 mM Tris-base; pH-adjusted to the value specified in the relevant Figure legends). […] Each experiment used ten oocytes for each condition tested. The influx of the radiolabelled substrate was halted by removing the reaction buffer and washing the oocytes twice in ice-cold ND96 buffer (3.5 mL). The oocytes were then transferred to separate wells of a 96-well plate, lysed with 10% SDS, and the radioactivity measured as described previously.
The data are averaged from four to five independent experiments (performed using oocytes from different frogs) and are shown + SEM. In B, the uptake of [^3H]hypoxanthine (0.36 μM) was measured over 30 min at pH 6.0. […] The data are averaged from three to six independent experiments (performed using oocytes from different frogs) and are shown + SEM. […] (TIF) Click here for additional data file.

3D7 parasites [4] = conditions: cited from earlier work
[5] = test system: PfFNT^Gly107Ser mutant parasites (MMV007839-selected culture B); test: L-[14C]lactate uptake by isolated PfFNT Gly107Ser mutant parasites; conditions: read-out: IC50, inhibition of L-[14C]lactate transport, pH 6.1, 4°C, 20 s, mean ± SEM
3D7 parasites [6] = test: Parasite viability after timed exposure and washout (parasitaemia on Day 3); conditions: 6 μM; for Effect on parasite viability: parasitaemia three days later
Dd2 parental parasites = test: L-[14C]lactate uptake by isolated Dd2 parental parasites; conditions: read-out: IC50, inhibition of L-[14C]lactate uptake; Dd2 (parental) parasites; pH 6.1, 4°C, 20 s; mean ± SEM
3D7 parasites [7] = test: Parasite proliferation assay, 3D7; format: cell-based, Plasmodium falciparum; conditions: 3D7 (our laboratory); mean ± SEM; read-out: IC50 value, growth inhibition
Description: Parasite proliferation was measured in 96-well plates using a fluorescent DNA-intercalating dye. The assays were initiated with erythrocytes infected with predominantly ring-stage parasites, and the starting parasitaemia was 0.5–1% and the haematocrit was 1%.

## COc1ccc2c(c1)OC(O)(C(F)(F)C(F)(F)F)CC2=O (centres unmarked) [MMV007839]
non-injected oocytes
  Effect on L-[14C]lactate transport into control (non-injected) oocytes: no changes
[1]; 0.5 μM
  Inhibition of L-[14C]lactate influx: inhibited L-[^14C]lactate influx to a similar degree
[1]; 2 μM
  Inhibition of L-[14C]lactate uptake: complete inhibition
[2]
  Volume increase of erythrocytes infected with 3D7 trophozoites: 5.4 ± 1.0 fL
  Volume increase of erythrocytes infected with 3D7 trophozoites relative to starting volume: 7.2 ± 1.3%
[3]
  Volume increase of isolated parasites: 5.1 ± 0.8 fL
  Volume increase of isolated parasites relative to starting volume: 13.1 ± 2.8%
Native PfFNT
  IC50: 22.5 nM and 23 nM
PfENT1
  Inhibition of [3H]hypoxanthine uptake by PfENT1-expressing oocytes: not inhibiting
3D7 parasites [4]; ref [1] Van Voorhis et al. 2016, read-out: IC50 for killing of 3D7 parasites
  IC50: 280 nM
3D7 parasites [4]; ref http://www.mmv.org/research-development/malaria-box-supporting-information, read-out: IC50 against 3D7 parasites, other groups
  IC50: 283 to 442 nM
[5]
  IC50: 16300 ± 4400 nM
3D7 parasites [6]; 1 h exposure
  Effect on parasite viability: did not significantly affect
3D7 parasites [6]; 3 h exposure
  Effect on parasite viability: did not significantly affect
3D7 parasites [6]; 6 h exposure, mean ± SEM, n = 3
  Parasitaemia three days after exposure, of control levels: 49 ± 7%
Dd2 parental parasites
  IC50: 158 ± 42 nM
3D7 parasites [7]
  IC50: 260 ± 30 nM
